Results taken from paper PMC6934184, “Selective DNA-PKcs inhibition extends the therapeutic index of localized radiotherapy and chemotherapy” (The Journal of Clinical Investigation, 2019).

Target: T1, KIT N822K (Homo sapiens, UniProt P10721, N822K)
T1 construct: purchased Thermo Fisher Scientific (Life Technologies) SelectScreen
Assay: SelectScreen LanthaScreen
Assay type: binding
Details: read-out: % displacement
Method: The in vitro kinase selectivity of NU5455 was determined using the SelectScreen Broad Assay Panel (Thermo Fisher Scientific) involving activity and binding assays (Supplemental Table 1). […] Class IA PI3Ks were measured using the p85α subunit.
Kinase [ATP] % Assay Kinase [ATP] % Assay Kinase [ATP] % Assay Kinase [ATP] % Assay […]
FLT3 Km app 9.1 Z HIPK1 (Myak) Km app 2.8 Z KIT N822K n/a -0.2 L EPHB4 Km app -5.3 Z […]
SGK (SGK1) Km app 8.5 Z MAP4K2 (GCK) Km app 2.7 Z TLK2 n/a -0.3 L STK38 (NDR) n/a -5.9 L
MERTK (cMER) Km app 8.3 Z CDK2/cyclin A Km app 2.7 Z TGFBR1 (ALK5) n/a -0.4 L MATK (HYL) Km app -6.3 Z
FYN Km app 8.3 Z EPHA1 Km app 2.7 Z CLK3 Km app -0.5 Z ABL1 E255K Km app -6.6 Z
TEC n/a 8.1 L CDK2/cyclin E1 n/a 2.7 L MAP3K14 (NIK) n/a -0.5 L STK17A (DRAK1) n/a -6.6 L
KIT V654A n/a 8.1 L TESK2 n/a 2.7 L AKT3 (PKB gamma) Km app -0.5 Z JAK2 JH1 JH2 Km app -6.7 Z
ROS1 Km app 8.0 Z SPHK1 Km app 2.7 A MAP3K9 (MLK1) Km app -0.5 Z PRKACB (PRKAC beta) n/a -6.8 L
FGFR3 K650E Km app 7.9 Z AMPK A2/B1/G1 Km app 2.6 Z IKBKB (IKK beta) Km app -0.6 Z PDGFRA (PDGFR alpha) Km app -6.8 Z
RAF1 (cRAF) Y340D Y341D 100 7.9 Z DYRK3 Km app 2.6 Z CAMK2A (CaMKII alpha) Km app -0.6 Z NEK9 Km app -7.2 Z
PI4KA (PI4K alpha) 10 7.8 A CSNK1D (CK1 delta) Km app 2.6 Z PRKCB1 (PKC beta I) Km app -0.7 Z PDK1 Km app -7.3 Z
HIPK2 Km app 7.8 Z ACVR2A n/a 2.5 L TTK n/a -0.7 L RPS6KB1 (p70S6K) Km app -7.8 Z […]

T1 sequence (P10721 26-976 N822K): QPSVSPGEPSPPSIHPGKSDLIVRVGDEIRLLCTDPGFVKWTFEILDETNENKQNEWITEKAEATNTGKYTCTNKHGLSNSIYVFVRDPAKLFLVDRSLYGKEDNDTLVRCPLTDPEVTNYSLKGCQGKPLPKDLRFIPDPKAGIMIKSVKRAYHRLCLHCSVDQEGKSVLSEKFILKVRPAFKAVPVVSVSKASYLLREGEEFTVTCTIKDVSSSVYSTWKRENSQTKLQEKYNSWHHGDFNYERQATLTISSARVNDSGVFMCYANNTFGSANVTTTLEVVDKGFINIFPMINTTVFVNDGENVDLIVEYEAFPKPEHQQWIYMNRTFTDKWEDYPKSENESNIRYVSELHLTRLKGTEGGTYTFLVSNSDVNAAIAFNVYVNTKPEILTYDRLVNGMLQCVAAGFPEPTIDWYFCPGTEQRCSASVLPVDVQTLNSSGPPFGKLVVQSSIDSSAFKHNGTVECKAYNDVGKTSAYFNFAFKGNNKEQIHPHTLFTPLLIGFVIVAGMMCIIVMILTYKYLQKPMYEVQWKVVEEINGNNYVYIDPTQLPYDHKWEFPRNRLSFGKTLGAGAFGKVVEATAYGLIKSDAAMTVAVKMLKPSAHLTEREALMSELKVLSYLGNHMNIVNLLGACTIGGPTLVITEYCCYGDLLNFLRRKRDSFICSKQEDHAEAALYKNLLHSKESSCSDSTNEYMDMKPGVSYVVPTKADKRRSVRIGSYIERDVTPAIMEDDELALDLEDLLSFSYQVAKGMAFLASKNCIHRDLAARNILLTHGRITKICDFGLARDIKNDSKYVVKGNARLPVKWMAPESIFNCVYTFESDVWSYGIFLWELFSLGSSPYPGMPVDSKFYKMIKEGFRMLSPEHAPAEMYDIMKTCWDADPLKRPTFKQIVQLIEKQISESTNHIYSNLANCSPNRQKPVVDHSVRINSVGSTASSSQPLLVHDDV

CN(C(=O)CN1CCOCC1)c1ccc2sc3c(-c4cccc5c(=O)cc(N6CC7CCC(C6)O7)oc45)cccc3c2c1 [NU5455]
inhibition at 1 µM: -0.2%
